In ChEMBL document CHEMBL1909046, “DrugMatrix in vitro pharmacology data”:

Legend:
[1] = target: T1, Alpha-2C adrenergic receptor (Homo sapiens, UniProt P18825); assay: DRUGMATRIX: Adrenergic Alpha-2C radioligand binding (ligand: [3H] MK-912); assay type: cell membranes, Sf9, Membrane; for IC50: call rule not given here
T1 sequence (P18825 whole entry): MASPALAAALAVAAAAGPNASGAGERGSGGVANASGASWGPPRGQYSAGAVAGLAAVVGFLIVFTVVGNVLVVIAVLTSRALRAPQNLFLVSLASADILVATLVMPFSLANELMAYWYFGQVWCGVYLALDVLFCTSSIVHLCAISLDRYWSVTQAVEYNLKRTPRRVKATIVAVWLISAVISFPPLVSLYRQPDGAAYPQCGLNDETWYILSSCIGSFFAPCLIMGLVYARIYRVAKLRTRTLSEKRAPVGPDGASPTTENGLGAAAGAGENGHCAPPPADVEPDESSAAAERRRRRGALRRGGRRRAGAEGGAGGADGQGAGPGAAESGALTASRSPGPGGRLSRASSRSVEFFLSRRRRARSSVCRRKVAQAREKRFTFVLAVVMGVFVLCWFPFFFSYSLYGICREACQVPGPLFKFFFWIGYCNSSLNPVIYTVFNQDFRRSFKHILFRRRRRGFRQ

B2 bradykinin receptor = target: T2, B2 bradykinin receptor (Homo sapiens, UniProt P30411); assay type: cell membranes, Membrane; conditions: chem-1; note: in other assays of this panel Not Active means under 50% inhibition at 10 µM
T2 sequence (P30411 whole entry): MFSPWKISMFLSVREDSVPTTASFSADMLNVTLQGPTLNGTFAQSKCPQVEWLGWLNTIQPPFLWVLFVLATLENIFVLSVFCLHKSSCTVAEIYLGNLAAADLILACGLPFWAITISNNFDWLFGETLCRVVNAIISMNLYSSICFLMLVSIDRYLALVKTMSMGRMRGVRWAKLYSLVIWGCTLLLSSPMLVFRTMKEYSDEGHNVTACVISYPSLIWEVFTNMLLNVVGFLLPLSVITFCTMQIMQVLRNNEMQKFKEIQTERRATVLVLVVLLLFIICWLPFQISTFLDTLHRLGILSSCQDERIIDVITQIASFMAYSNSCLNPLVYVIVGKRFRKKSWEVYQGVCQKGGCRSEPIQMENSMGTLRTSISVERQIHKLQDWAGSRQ

Cannabinoid receptor 1 = Cannabinoid receptor 1 (Homo sapiens, UniProt P21554); assay type: cell membranes, Chem-1, Membrane; note: in other assays of this panel Not Active means under 50% inhibition at 10 µM
[2] = target: T3, C-C chemokine receptor type 4 (Homo sapiens, UniProt P51679); assay type: cell membranes, Membrane; conditions: chem-1; note: in other assays of this panel Not Active means under 50% inhibition at 10 µM
T3 sequence (P51679 whole entry): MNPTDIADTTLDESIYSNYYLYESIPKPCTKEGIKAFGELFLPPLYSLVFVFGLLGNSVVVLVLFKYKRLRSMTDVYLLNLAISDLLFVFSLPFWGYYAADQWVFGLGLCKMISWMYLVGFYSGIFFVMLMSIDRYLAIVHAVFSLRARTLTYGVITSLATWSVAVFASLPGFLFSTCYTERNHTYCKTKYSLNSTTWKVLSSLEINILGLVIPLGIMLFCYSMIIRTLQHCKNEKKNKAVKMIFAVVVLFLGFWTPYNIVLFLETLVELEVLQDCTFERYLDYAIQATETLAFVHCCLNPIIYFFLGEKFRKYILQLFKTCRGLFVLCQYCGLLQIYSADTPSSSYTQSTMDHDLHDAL

[3] = target: T4, Muscarinic acetylcholine receptor M2 (Homo sapiens, UniProt P08172); assay type: cell membranes, CHO-K1, Membrane; note: in other assays of this panel Not Active means under 50% inhibition at 10 µM
T4 sequence (P08172 whole entry): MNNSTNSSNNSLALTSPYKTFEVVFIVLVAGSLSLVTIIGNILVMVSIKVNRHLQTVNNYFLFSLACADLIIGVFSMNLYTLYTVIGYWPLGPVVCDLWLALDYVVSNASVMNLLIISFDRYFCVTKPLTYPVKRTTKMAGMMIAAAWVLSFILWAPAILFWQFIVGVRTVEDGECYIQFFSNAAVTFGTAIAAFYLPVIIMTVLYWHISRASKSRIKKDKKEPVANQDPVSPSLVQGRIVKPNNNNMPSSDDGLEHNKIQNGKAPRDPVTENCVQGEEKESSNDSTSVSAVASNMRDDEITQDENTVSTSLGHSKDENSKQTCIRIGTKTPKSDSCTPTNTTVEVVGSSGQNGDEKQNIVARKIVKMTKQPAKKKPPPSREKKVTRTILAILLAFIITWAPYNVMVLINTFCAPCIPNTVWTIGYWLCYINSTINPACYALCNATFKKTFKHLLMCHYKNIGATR

[4] = target: 5-hydroxytryptamine receptor 1B (Rattus norvegicus, UniProt P28564); assay type: cell membranes, Wistar, Cerebral cortex, Membrane; note: in other assays of this panel Not Active means under 50% inhibition at 10 µM
Sequence of 5-hydroxytryptamine receptor 1B (P28564 whole entry): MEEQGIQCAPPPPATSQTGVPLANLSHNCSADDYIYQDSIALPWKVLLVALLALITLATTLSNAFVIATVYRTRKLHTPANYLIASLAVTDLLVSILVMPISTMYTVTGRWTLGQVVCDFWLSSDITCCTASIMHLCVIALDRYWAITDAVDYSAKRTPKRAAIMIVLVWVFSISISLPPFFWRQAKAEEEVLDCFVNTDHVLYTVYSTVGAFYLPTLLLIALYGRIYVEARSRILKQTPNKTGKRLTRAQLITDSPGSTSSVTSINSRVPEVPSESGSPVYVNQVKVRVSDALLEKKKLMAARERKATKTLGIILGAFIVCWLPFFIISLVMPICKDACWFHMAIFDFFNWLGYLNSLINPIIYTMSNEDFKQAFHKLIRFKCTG

Sequence of Cannabinoid receptor 1 (P21554 whole entry): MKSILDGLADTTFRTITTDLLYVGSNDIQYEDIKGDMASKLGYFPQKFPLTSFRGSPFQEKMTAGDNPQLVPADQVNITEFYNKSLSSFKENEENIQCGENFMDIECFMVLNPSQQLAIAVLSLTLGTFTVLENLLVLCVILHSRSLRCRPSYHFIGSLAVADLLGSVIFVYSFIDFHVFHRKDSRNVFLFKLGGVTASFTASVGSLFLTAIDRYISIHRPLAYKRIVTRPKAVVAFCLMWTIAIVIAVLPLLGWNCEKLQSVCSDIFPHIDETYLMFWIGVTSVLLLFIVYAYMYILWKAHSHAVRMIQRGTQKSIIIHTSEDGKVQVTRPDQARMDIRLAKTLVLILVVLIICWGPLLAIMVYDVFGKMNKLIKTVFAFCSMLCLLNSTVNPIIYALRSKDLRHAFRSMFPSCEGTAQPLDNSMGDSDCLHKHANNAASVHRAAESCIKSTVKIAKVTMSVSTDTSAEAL

Compound | IC50 ([1]; sf9) | IC50 (B2 bradykinin receptor) | IC50 (Cannabinoid receptor 1; chem-1) | IC50 [2] | IC50 ([3]; cho-k1) | IC50 [4] | other results
CCCCC(=O)N(Cc1ccc(-c2ccccc2-c2nnn[nH]2)cc1)[C@H](C(=O)O)C(C)C | Not Active | Not Active | Not Active | Not Active | Not Active | Not Active | 
O=C(O)COc1ccc(C(=O)c2cccs2)c(Cl)c1Cl | Not Active | Not Active | Not Active | Not Active | Not Active | Not Active | 
CN1[C@@H]2CC[C@H]1C[C@@H](OC(c1ccccc1)c1ccccc1)C2 [BENZTROPINE] |  | Not Active | Not Active | Not Active |  | Not Active | 
C[C@@](Cc1ccc(O)c(O)c1)(NN)C(=O)O.O [CARBIDOPA] | Not Active | Not Active | Not Active | Not Active | Not Active | Not Active | 
CN1CCN(C2=Nc3cc(Cl)ccc3Nc3ccccc32)CC1 [CLOZAPINE] |  | Not Active | Not Active | Not Active |  |  | 
CC(C)NC[C@@H](O)COc1cccc2ccccc12 [DEXPROPRANOLOL] | Not Active | Not Active | Not Active | Not Active | Not Active | Not Active | 
CC(C)NC[C@H](O)COc1cccc2ccccc12 [LEVOPROPRANOLOL] | Not Active | Not Active | Not Active | Not Active | Not Active | Not Active | 
O=C(O)CCCCC1CCSS1 (stereo not drawn) [LIPOIC ACID, ALPHA] | Not Active | Not Active | Not Active | Not Active | Not Active | Not Active | 
CN(C)C(=O)C(CCN1CCC(O)(c2ccc(Cl)cc2)CC1)(c1ccccc1)c1ccccc1 [LOPERAMIDE] | Not Active | Not Active | Not Active | Not Active | Not Active | Not Active | 
Clc1ccc(COC(Cn2ccnc2)c2ccc(Cl)cc2Cl)c(Cl)c1 (configuration not stated) [MICONAZOLE] | Not Active | Not Active |  | Not Active |  |  | IC50 (Cannabinoid receptor 1; read-out: IC50): 21 µM; Ki (Cannabinoid receptor 1; read-out: Ki): 16.6 µM; IC50 ([3]; read-out: IC50): 4.34 µM; Ki ([3]; read-out: Ki): 1.54 µM; IC50 ([4]; read-out: IC50): 20.6 µM; Ki ([4]; read-out: Ki): 9.36 µM
Oc1ccc2c3c1O[C@H]1[C@@H](O)CC[C@@]4(O)[C@@H](C2)N(CC2CCC2)CC[C@]314 [NALBUPHINE] | Not Active | Not Active | Not Active | Not Active | Not Active | Not Active | 
C[C@]12C=CC(=O)C=C1CC[C@@H]1[C@@H]2C(=O)C[C@@]2(C)[C@H]1CC[C@]2(O)C(=O)CO [PREDNISONE] | Not Active | Not Active | Not Active | Not Active | Not Active | Not Active | 
OCCOCCN1CCN(C2=Nc3ccccc3Sc3ccccc32)CC1 [QUETIAPINE] |  | Not Active | Not Active | Not Active |  | Not Active | 
COC(=O)[C@H]1[C@H]2C[C@@H]3c4[nH]c5cc(OC)ccc5c4CCN3C[C@H]2C[C@@H](OC(=O)c2cc(OC)c(OC)c(OC)c2)[C@@H]1OC [RESERPINE] | Not Active | Not Active | Not Active | Not Active | Not Active | Not Active | 
O=C(O)c1ccccc1O [SALICYLIC ACID] | Not Active | Not Active | Not Active | Not Active | Not Active | Not Active | 
C[S+]([O-])c1ccc(-c2nc(-c3ccncc3)c(-c3ccc(F)cc3)[nH]2)cc1 (configuration not stated) [SB-203580] | Not Active | Not Active | Not Active | Not Active | Not Active | Not Active | 
CC1CCC(NC(=O)N(CCCl)N=O)CC1 (configuration not stated) [SEMUSTINE] | Not Active | Not Active | Not Active | Not Active | Not Active | Not Active | 
O=C1C[C@@H]2OCC=C3CN4CC[C@]56c7ccccc7N1[C@H]5[C@H]2[C@H]3C[C@H]46 [STRYCHNINE] | Not Active | Not Active | Not Active | Not Active | Not Active | Not Active | 
C[N+](C)(C)CCOC(=O)CCC(=O)OCC[N+](C)(C)C.[Cl-].[Cl-] [SUCCINYLCHOLINE CHLORIDE] | Not Active | Not Active | Not Active | Not Active | Not Active | Not Active | 
Nc1ccc(S(=O)(=O)NC(=O)c2ccccc2)cc1 [SULFABENZAMIDE] | Not Active | Not Active | Not Active | Not Active | Not Active | Not Active | 
CCCCCCCCNC(C)C(O)c1ccc(SC(C)C)cc1 (configuration not stated) [SULOCTIDIL] |  | Not Active | Not Active | Not Active | Not Active | Not Active | IC50 ([1]; read-out: IC50): 3.45 µM; Ki ([1]; read-out: Ki): 0.501 µM
O=c1[nH]c(=O)n(C2CCCO2)cc1F (configuration not stated) [TEGAFUR] | Not Active | Not Active | Not Active | Not Active | Not Active | Not Active | 
CC(=N)S [THIOACETAMIDE] | Not Active | Not Active | Not Active | Not Active | Not Active | Not Active | 
Cc1ccc(C(=O)c2ccc(CC(=O)O)n2C)cc1 [TOLMETIN] | Not Active | Not Active | Not Active | Not Active | Not Active | Not Active | 
CC(=O)OCC(COC(C)=O)OC(C)=O [TRIACETIN] | Not Active | Not Active | Not Active |  | Not Active | Not Active | Ki [2]: Not Active
CN1CCN(CCCN2c3ccccc3Sc3ccc(C(F)(F)F)cc32)CC1 [TRIFLUOPERAZINE] | Not Active | Not Active | Not Active |  | Not Active | Not Active | Ki [2]: Not Active
TRANSPLATIN | Not Active | Not Active | Not Active | Not Active | Not Active | Not Active | Ki ([1]; sf9): Not Active; Ki (B2 bradykinin receptor): Not Active; Ki (Cannabinoid receptor 1; chem-1): Not Active; Ki [2]: Not Active; Ki ([3]; cho-k1): Not Active; Ki [4]: Not Active
ZIRCONIUM(IV) CHLORIDE | Not Active | Not Active | Not Active | Not Active | Not Active | Not Active | Ki ([1]; sf9): Not Active; Ki (B2 bradykinin receptor): Not Active; Ki (Cannabinoid receptor 1; chem-1): Not Active; Ki [2]: Not Active; Ki ([3]; cho-k1): Not Active; Ki [4]: Not Active
